Results from article PMC12736255, “Reinvestigating Pyrrol-2-One-Based Compounds: From Antimicrobial Agents to Promising Antitumor Candidates” (Pharmaceuticals, 2025).

What was measured:
[1] = tested on: osteosarcoma (HOS and MG-63) cells; experiment: CellTiter-Glo 2.0 cytotoxicity, osteosarcoma; type: cell-based, human; conditions: osteosarcoma cell lines, 10 and 50 µM, 24 h
Description: (§1) Cytotoxicity of compounds was assessed using the CellTiter-Glo® 2.0 Assay (Promega, Madison, WI, USA) on human gingival fibroblasts (HGF), osteosarcoma (HOS and MG-63) and glioblastoma (LN-229 and U-118MG) cells, according to the manufacturer’s instructions. HGF, HOS, MG-63 and U-118MG cells were purchased from Cytion GmbH, Eppelheim, Germany, and LN-229 (CRL-2611) from the American Type Culture Collection (ATCC), Manassas, VA, USA. Cells were seeded (50,000 cells/mL—HGF, 100,000 cells/mL—tumor cells) into 96-well opaque white tissue culture-treated plates and allowed to adhere overnight in αMEM medium with 10% fetal bovine serum and 1% antibiotic-antimycotic (all from PAN—Biotech GmbH, Aidenbach, Germany). Cells were incubated with compounds (10 or 50 µM) for 24 h, then CellTiter-Glo® reagent was added and luminescence was recorded using a FLUOstar® Omega microplate reader (BMG LABTECH, Ortenberg, Germany). The experiments were carried out in triplicate, and the viability of treated cells was expressed as a percentage of the viability of control cells (untreated). Data were represented as means ± standard deviations. Stock solutions of compounds were prepared in DMSO, then diluted in complete cell culture media. […] Data were analyzed with independent two-tailed (Student’s) t-test, considering p < 0.05 statistically significant.

KM12 = experiment: NCI-60 5-dose screen; type: cell-based, human; conditions: for GI50 / CC50: Homo sapiens; for CC50: read-out: LC50 (the source's name)
[2] = CellTiter-Glo 2.0 cytotoxicity, normal fibroblasts; type: cell-based, human; conditions: human, human gingival fibroblasts (HGF), read-out: cell viability
Description: as §1

fungal strains = tested on: fungal strains; parameters: method as in PMID 38398524; conditions: cited from earlier work
[3] = tested on: human gingival fibroblasts (HGF); experiment: CellTiter-Glo 2.0 cytotoxicity, normal fibroblasts; type: cell-based; conditions: 50 µM, 24 h
Description: as §1

SMILES	cytotoxicity (activity in words) [1]	TGI (KM12) [µM]	GI50 (KM12) [µM]	CC50 (KM12) [µM]	viability at 24 h, 50 µM [2] [%]	antifungal activity (in words) (fungal strains)	cytotoxicity (activity in words) [3]
O=C1C(Nc2ccc(I)cc2)=CC(c2ccc(O)cc2)N1c1ccc(I)cc1 (stereo not drawn) [3g]	notable activity	–	–	–	–	–	–
O=C1C(Nc2ccc(I)cc2)=CC(c2ccc(C(F)(F)F)cc2)N1c1ccc(I)cc1 (stereo not drawn) [3e]	–	>100	> 100	> 100	–	–	–
COc1cc(OC)c(C2C=C(Nc3ccc(I)cc3)C(=O)N2c2ccc(I)cc2)cc1OC (stereo not drawn) [3k]	–	–	–	–	64	–	–
N#Cc1ccc(C2C=C(Nc3ccc(I)cc3)C(=O)N2c2ccc(I)cc2)cc1 (stereo not drawn) [3l]	–	>100	9.7	> 100	–	most effective against fungal strains	–
COc1ccccc1C1C=C(Nc2ccc(I)cc2)C(=O)N1c1ccc(I)cc1 (stereo not drawn) [3i]	–	–	–	–	–	most effective against fungal strains	–
O=C1C(Nc2ccc(I)cc2)=CC(c2ccc(O)c(O)c2)N1c1ccc(I)cc1 (stereo not drawn) [3h]	notable activity	>100	5.22	> 100	–	–	acute cytotoxicity
